Tests used:
hemoglobin [1] = molecular target: T1, hemoglobin (Homo sapiens, UniProt P68871); details: pH 7.4, 37° C.; cited from earlier work
hemoglobin [2] = molecular target: T1, hemoglobin; details: relative to DPG; cited from earlier work
resting Lymphocytes = assay: Transfection efficiency analysis, resting lymphocytes; type: cell-based
Protocol: Primary lymphocytes were suspended in B&K buffer (125 mM KCl, 15 mM NaCl, 1.2 mM MgCl2, 3 mM glucose, 25 mM Hepes, pH 7.4) cell concentration was set from 1×10^7 cells/mL to 6×10^8 cells/mL together with DNA plasmid from 50 μg/mL to 1 mg/mL. Electroporation, 2.3 kV/cm, 400 μs, 4 pulses for small volume experiments (15 μl) or 2.2 kV/cm, 1.6 ms, 1 pulse for large volume experiments (0.5 mL–2 mL) was performed at room temperature. Following electroporation, cells were incubated in B&K buffer for 20 min at 37° C. for small volume experiments, or diluted by 10× volume of culture medium (RPMI-1640+10% fetal bovine serum+1% Pen-strep+2 mM L-glutamine) for large volume experiments. Cells were cultured in culture medium for various periods (up to 72 hours) and the transfection efficiency was analyzed.
Seven transgenes (Ds-Red, eGFP, βGal, hEndostatin, hEPO, hIFNα, hIL-2) were tested in these experiments. […] When pCMV-Ds-Red or pCMV-EGFP was used, the percentage of the fluorescent cells was counted, by FACS or by manual counting under phase contrast and fluorescence microscope, as the transfection efficiency. […] When pCMV-Endostatin was used, the Endostatin concentration in the supernatant was analyzed by ELISA kit from Cytimmune Sciences, Inc. (College Park, Md.). For pCMV-EPO electroporation, the erythropoietin concentration in the supernatant was analyzed by R&D ELISA kit (Minneapolis, Minn.).

T1 sequence (P69905 2-142 partner limits assumed): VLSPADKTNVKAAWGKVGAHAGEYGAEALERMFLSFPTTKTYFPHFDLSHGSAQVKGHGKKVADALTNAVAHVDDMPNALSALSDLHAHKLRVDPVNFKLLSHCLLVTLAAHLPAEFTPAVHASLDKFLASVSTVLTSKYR
T1 sequence (P68871 2-147 limits assumed): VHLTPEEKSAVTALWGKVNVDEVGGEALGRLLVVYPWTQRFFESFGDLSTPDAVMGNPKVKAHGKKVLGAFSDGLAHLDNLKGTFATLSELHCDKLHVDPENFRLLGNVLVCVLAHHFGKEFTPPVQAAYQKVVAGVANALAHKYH

| Molecule | P50 of hemoglobin (hemoglobin [1]) | affinity to hemoglobin, higher than DPG (hemoglobin [2]) | Efficiency (% of + cells) (resting Lymphocytes) | Viability (resting Lymphocytes) |
| --- | --- | --- | --- | --- |
| O=P(O)(O)O[C@H]1[C@H](OP(=O)(O)O)[C@@H](OP(=O)(O)O)[C@H](OP(=O)(O)O)[C@@H](OP(=O)(O)O)[C@H]1OP(=O)(O)O [IHP, inositol hexaphosphate] | ≤ 96.4 mm Hg | 1000 fold |  |  |
| βGal |  |  | 15% | 40% |

— patent publication US7029916B2, “Apparatus and method for flow electroporation of biological samples” (MAXCYTE, Inc., priority 2001, dated 2006)
